Results from ChEMBL document CHEMBL4507294, “Data for DCP probe MSD-CYP11B2” (2021).

Columns and labels:
[1] = molecular target: Mitogen-activated protein kinase kinase kinase 1 (Homo sapiens) (UniProt Q13233); details: Compound concentration 1000.0 nM
[2] = molecular target: Serine/threonine-protein kinase pim-2 (Homo sapiens) (UniProt Q9P1W9); details: Compound concentration 1000.0 nM
[3] = molecular target: Bone morphogenetic protein receptor type-1B (Homo sapiens) (UniProt O00238); details: Compound concentration 1000.0 nM
[4] = molecular target: 1-phosphatidylinositol 3-phosphate 5-kinase (Homo sapiens) (UniProt Q9Y2I7); details: Compound concentration 1000.0 nM
[5] = molecular target: Ephrin type-A receptor 5 (Homo sapiens) (UniProt P54756); details: Compound concentration 1000.0 nM
[6] = molecular target: 5'-AMP-activated protein kinase catalytic subunit alpha-1 (Homo sapiens) (UniProt Q13131); details: Compound concentration 1000.0 nM
[7] = molecular target: D(1B) dopamine receptor (Homo sapiens) (UniProt P21918); details: Compound concentration 10.0 uM
[8] = molecular target: Serine/threonine-protein kinase Chk2 (Homo sapiens) (UniProt O96017); details: Compound concentration 1000.0 nM
[9] = molecular target: Serine/threonine-protein kinase 36 (Homo sapiens) (UniProt Q9NRP7); details: Compound concentration 1000.0 nM
[10] = molecular target: Serine/threonine-protein kinase N1 (Homo sapiens) (UniProt Q16512); details: Compound concentration 1000.0 nM
[11] = molecular target: Tyrosine-protein kinase Yes (Homo sapiens) (UniProt P07947); details: Compound concentration 1000.0 nM
[12] = molecular target: Tyrosine-protein kinase Lck (Homo sapiens) (UniProt P06239); details: Compound concentration 1000.0 nM
[13] = molecular target: Cyclin-dependent kinase 2 homolog (Plasmodium falciparum (isolate 3D7)) (UniProt P61075); details: Compound concentration 1000.0 nM
[14] = molecular target: Casein kinase I isoform epsilon (Homo sapiens) (UniProt P49674); details: Compound concentration 1000.0 nM
[15] = molecular target: Serine/threonine-protein kinase 17A (Homo sapiens) (UniProt Q9UEE5); details: Compound concentration 1000.0 nM
[16] = molecular target: Aurora kinase B (Homo sapiens) (UniProt Q96GD4); details: Compound concentration 1000.0 nM
[17] = system: Receptor-type tyrosine-protein kinase FLT3 (Homo sapiens), P36888 [D835V]; details: Compound concentration 1000.0 nM
[18] = molecular target: cAMP-dependent protein kinase catalytic subunit beta (Homo sapiens) (UniProt P22694); details: Compound concentration 1000.0 nM
[19] = molecular target: Serine/threonine-protein kinase 3 (Homo sapiens) (UniProt Q13188); details: Compound concentration 1000.0 nM
[20] = molecular target: TGF-beta receptor type-2 (Homo sapiens) (UniProt P37173); details: Compound concentration 1000.0 nM
[21] = molecular target: Epidermal growth factor receptor (Homo sapiens) (UniProt P00533); details: Compound concentration 1000.0 nM
[22] = molecular target: RAC-alpha serine/threonine-protein kinase (Homo sapiens) (UniProt P31749); details: Compound concentration 1000.0 nM
[23] = molecular target: Calcium/calmodulin-dependent protein kinase type 1G (Homo sapiens) (UniProt Q96NX5); details: Compound concentration 1000.0 nM
[24] = system: Phosphatidylinositol 4,5-bisphosphate 3-kinase catalytic subunit alpha isoform (Homo sapiens), P42336 [H1047Y]; details: Compound concentration 1000.0 nM
[25] = molecular target: Tyrosine-protein kinase HCK (Homo sapiens) (UniProt P08631); details: Compound concentration 1000.0 nM
[26] = system: Receptor-type tyrosine-protein kinase FLT3 (Homo sapiens), P36888 [R834Q]; details: Compound concentration 1000.0 nM
[27] = molecular target: Serine/threonine-protein kinase pim-1 (Homo sapiens) (UniProt P11309); details: Compound concentration 1000.0 nM
[28] = molecular target: Vascular endothelial growth factor receptor 2 (Homo sapiens) (UniProt P35968); details: Compound concentration 1000.0 nM
[29] = system: Phosphatidylinositol 4,5-bisphosphate 3-kinase catalytic subunit alpha isoform (Homo sapiens), P42336 [Q546K]; details: Compound concentration 1000.0 nM
[30] = molecular target: Serine/threonine-protein kinase Chk1 (Homo sapiens) (UniProt O14757); details: Compound concentration 1000.0 nM
[31] = molecular target: NT-3 growth factor receptor (Homo sapiens) (UniProt Q16288); details: Compound concentration 1000.0 nM
[32] = molecular target: Phosphatidylinositol 4-phosphate 3-kinase C2 domain-containing subunit beta (Homo sapiens) (UniProt O00750); details: Compound concentration 1000.0 nM
[33] = molecular target: Tyrosine-protein kinase receptor Tie-1 (Homo sapiens) (UniProt P35590); details: Compound concentration 1000.0 nM
[34] = molecular target: Mitogen-activated protein kinase 11 (Homo sapiens) (UniProt Q15759); details: Compound concentration 1000.0 nM
[35] = molecular target: Serine/threonine-protein kinase MARK1 (Homo sapiens) (UniProt Q9P0L2); details: Compound concentration 1000.0 nM
[36] = molecular target: Receptor-interacting serine/threonine-protein kinase 2 (Homo sapiens) (UniProt O43353); details: Compound concentration 1000.0 nM
[37] = molecular target: Insulin-like growth factor 1 receptor (Homo sapiens) (UniProt P08069); details: Compound concentration 1000.0 nM
[38] = system: Phosphatidylinositol 4,5-bisphosphate 3-kinase catalytic subunit alpha isoform (Homo sapiens), P42336 [E545K]; details: Compound concentration 1000.0 nM
[39] = molecular target: Serine/threonine-protein kinase PAK 4 (Homo sapiens) (UniProt O96013); details: Compound concentration 1000.0 nM
[40] = molecular target: MAP/microtubule affinity-regulating kinase 3 (Homo sapiens) (UniProt P27448); details: Compound concentration 1000.0 nM
[41] = molecular target: Serine/threonine-protein kinase 32B (Homo sapiens) (UniProt Q9NY57); details: Compound concentration 1000.0 nM
[42] = molecular target: Receptor-type tyrosine-protein kinase FLT3 (Homo sapiens) (UniProt P36888); details: Compound concentration 1000.0 nM
[43] = molecular target: Tyrosine-protein kinase receptor TYRO3 (Homo sapiens) (UniProt Q06418); details: Compound concentration 1000.0 nM
[44] = molecular target: Hepatocyte growth factor receptor (Homo sapiens) (UniProt P08581); details: Compound concentration 1000.0 nM
[45] = molecular target: Casein kinase I isoform delta (Homo sapiens) (UniProt P48730); details: Compound concentration 1000.0 nM

Sequence of Serine/threonine-protein kinase 17A (Homo sapiens) (Q9UEE5 whole entry): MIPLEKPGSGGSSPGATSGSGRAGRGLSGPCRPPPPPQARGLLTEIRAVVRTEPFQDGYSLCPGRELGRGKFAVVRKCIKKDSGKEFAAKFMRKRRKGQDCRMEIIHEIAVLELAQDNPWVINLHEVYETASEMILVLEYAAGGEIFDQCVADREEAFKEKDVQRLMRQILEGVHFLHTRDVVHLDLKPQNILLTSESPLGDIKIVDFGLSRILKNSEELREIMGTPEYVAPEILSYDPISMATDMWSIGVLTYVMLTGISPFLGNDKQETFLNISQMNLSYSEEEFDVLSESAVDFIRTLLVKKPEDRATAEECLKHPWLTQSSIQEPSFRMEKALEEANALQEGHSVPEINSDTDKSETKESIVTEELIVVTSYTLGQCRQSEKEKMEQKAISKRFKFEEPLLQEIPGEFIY
Sequence of 5'-AMP-activated protein kinase catalytic subunit alpha-1 (Homo sapiens) (Q13131 whole entry, looked up): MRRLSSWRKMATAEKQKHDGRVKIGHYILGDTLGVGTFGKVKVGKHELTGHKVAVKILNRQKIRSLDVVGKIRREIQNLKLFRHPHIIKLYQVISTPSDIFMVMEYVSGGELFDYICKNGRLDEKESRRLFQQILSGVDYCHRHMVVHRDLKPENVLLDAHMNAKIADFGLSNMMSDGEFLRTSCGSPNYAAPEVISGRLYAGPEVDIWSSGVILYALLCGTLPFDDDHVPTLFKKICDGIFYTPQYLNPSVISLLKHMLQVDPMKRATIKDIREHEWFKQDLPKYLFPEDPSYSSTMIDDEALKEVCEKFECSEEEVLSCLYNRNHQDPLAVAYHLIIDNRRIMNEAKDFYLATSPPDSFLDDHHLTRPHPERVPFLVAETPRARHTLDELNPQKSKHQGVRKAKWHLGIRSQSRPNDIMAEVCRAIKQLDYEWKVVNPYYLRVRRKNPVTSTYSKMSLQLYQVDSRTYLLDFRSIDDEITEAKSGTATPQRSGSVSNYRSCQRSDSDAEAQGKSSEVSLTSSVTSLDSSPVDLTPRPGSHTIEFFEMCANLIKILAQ
Sequence of Serine/threonine-protein kinase 3 (Homo sapiens) (Q13188 whole entry): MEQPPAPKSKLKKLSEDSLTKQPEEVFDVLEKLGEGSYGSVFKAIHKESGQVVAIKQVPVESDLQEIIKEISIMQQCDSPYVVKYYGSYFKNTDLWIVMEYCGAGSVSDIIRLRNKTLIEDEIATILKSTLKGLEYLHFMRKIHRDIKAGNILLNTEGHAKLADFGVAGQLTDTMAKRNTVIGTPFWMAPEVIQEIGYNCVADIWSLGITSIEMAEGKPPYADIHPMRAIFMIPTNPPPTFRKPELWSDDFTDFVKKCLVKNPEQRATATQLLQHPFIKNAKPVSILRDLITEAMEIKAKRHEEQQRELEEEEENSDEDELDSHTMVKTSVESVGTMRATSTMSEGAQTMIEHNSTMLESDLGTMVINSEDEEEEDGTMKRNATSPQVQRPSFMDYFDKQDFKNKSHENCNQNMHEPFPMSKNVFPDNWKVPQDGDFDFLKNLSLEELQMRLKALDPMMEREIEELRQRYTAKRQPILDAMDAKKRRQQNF
Sequence of Insulin-like growth factor 1 receptor (Homo sapiens) (P08069 31-736 limits assumed): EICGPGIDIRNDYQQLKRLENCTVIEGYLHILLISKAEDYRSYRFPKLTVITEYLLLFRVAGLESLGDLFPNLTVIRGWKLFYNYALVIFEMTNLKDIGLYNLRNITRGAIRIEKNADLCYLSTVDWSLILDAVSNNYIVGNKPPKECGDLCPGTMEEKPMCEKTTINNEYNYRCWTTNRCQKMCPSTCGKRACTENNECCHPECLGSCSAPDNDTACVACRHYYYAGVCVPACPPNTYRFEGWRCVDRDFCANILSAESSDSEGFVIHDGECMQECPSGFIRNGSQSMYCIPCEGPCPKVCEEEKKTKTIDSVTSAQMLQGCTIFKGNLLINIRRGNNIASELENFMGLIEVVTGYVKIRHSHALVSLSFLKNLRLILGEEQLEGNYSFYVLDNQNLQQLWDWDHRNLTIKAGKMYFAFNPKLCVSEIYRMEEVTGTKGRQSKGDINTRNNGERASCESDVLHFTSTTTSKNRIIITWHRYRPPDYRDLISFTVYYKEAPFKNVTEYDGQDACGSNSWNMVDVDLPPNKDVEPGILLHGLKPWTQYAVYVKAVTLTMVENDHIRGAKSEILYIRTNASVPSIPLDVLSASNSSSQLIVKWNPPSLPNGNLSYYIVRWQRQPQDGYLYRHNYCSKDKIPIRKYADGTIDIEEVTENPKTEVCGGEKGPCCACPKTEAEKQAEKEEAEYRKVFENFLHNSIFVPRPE
Sequence of Insulin-like growth factor 1 receptor (Homo sapiens) (P08069 741-1367 limits assumed): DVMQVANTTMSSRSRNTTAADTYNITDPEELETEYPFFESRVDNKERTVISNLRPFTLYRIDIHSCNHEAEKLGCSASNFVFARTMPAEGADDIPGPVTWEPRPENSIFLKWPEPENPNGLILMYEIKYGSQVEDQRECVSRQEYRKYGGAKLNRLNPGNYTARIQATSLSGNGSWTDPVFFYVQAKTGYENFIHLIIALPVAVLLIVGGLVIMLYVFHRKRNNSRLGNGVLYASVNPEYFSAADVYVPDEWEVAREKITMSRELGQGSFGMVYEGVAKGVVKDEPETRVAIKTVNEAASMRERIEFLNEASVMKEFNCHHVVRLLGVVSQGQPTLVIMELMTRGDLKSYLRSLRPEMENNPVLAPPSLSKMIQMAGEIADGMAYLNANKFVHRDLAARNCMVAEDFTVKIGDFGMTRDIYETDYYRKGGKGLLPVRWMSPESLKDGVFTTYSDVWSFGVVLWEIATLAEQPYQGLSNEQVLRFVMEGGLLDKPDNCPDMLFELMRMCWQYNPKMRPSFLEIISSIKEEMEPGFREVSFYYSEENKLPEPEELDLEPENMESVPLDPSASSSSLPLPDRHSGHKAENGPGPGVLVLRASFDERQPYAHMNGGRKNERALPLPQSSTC
Sequence of Tyrosine-protein kinase receptor Tie-1 (Homo sapiens) (P35590 whole entry): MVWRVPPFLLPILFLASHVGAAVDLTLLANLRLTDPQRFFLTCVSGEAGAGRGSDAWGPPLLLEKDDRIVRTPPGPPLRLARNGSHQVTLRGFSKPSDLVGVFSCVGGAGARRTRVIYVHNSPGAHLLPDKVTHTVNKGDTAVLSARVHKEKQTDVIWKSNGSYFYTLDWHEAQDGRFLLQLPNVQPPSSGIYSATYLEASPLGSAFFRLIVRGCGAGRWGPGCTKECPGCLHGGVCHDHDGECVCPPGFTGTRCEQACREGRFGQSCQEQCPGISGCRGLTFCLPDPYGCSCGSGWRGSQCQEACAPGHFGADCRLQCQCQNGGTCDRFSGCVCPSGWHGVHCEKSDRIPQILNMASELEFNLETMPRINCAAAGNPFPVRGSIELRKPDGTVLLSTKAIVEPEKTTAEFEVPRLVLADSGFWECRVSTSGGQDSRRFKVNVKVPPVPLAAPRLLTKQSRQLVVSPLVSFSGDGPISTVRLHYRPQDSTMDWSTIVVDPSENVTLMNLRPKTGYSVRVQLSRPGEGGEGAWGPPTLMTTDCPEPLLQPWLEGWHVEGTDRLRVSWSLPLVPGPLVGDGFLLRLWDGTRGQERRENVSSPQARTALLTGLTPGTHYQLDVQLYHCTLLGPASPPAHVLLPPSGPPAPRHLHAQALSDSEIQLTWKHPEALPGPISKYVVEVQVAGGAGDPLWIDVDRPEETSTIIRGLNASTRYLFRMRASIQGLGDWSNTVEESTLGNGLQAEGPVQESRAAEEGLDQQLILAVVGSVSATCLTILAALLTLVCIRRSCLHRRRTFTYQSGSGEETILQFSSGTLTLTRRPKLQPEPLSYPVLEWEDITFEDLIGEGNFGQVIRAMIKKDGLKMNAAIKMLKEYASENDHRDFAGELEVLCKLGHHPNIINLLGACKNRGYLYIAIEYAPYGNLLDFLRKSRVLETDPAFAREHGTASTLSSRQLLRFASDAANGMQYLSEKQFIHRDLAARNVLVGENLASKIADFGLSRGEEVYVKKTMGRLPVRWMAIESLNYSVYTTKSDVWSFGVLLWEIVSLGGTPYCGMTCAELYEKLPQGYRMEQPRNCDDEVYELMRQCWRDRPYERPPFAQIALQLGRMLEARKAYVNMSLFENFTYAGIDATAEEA
Sequence of Serine/threonine-protein kinase MARK1 (Homo sapiens) (Q9P0L2 whole entry, looked up): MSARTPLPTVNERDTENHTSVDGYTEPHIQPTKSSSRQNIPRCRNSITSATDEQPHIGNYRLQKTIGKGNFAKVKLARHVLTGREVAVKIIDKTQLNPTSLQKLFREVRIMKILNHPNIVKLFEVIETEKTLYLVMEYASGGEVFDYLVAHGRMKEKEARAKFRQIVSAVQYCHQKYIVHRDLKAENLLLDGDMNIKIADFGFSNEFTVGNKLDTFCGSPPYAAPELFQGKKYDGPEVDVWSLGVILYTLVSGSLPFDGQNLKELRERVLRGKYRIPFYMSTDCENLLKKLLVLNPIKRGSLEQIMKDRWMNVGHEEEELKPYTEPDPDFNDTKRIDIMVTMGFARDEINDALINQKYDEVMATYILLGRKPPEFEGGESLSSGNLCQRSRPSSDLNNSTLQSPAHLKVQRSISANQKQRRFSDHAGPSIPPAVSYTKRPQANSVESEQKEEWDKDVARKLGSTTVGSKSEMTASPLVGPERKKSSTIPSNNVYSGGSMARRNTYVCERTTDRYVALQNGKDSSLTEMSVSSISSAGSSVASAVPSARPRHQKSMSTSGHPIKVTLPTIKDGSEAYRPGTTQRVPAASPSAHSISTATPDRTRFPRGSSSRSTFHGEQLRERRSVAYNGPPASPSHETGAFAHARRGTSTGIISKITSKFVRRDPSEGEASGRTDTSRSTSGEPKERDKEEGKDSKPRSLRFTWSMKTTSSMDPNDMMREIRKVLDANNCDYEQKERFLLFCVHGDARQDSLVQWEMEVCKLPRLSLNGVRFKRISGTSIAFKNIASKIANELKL
Sequence of Serine/threonine-protein kinase pim-1 (Homo sapiens) (P11309 whole entry, looked up): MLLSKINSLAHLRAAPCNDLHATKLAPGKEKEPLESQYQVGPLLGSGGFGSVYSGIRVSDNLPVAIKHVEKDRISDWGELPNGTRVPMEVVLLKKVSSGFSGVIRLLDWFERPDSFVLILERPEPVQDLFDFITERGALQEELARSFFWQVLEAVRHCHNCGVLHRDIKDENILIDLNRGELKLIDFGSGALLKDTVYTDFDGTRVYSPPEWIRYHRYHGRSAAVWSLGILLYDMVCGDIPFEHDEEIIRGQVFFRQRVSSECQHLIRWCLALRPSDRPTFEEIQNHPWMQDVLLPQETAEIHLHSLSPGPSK

FC(F)(F)c1ccc2c(c1)nc(-c1cccnc1)n2C1CC1 [MSD-CYP11B2-Negative-control]
inactive: residual activity [1] 100% | residual activity [2] 100% | residual activity [3] 83% | residual activity [4] 99% | residual activity [5] 96% | residual activity [6] 100% | inhibition [7] 22.5% | residual activity [8] 100% | residual activity [9] 84% | residual activity [10] 100% | residual activity [11] 100% | residual activity [12] 100% | residual activity [13] 100% | residual activity [14] 100% | residual activity [15] 100% | residual activity [16] 100% | residual activity [17] 92% | residual activity [18] 100% | residual activity [19] 94% | residual activity [20] 100% | residual activity [21] 86% | residual activity [22] 100% | residual activity [23] 100% | residual activity [24] 78% | residual activity [25] 100% | residual activity [26] 100% | residual activity [27] 94% | residual activity [28] 100% | residual activity [29] 99% | residual activity [30] 100% | residual activity [31] 100% | residual activity [32] 100% | residual activity [33] 100% | residual activity [34] 100% | residual activity [35] 100% | residual activity [36] 100% | residual activity [37] 100% | residual activity [38] 100% | residual activity [39] 100% | residual activity [40] 100% | residual activity [41] 100% | residual activity [42] 93% | residual activity [43] 100% | residual activity [44] 100% | residual activity [45] 100%

CC(C)(O)c1cncc(-c2nc3ccc(F)cc3n2C2CC2)c1 [MSD-CYP11B2]
inactive: residual activity [1] 100% | residual activity [2] 100% | residual activity [3] 96% | residual activity [4] 99% | residual activity [5] 100% | residual activity [6] 100% | inhibition [7] 21% | residual activity [8] 100% | residual activity [9] 93% | residual activity [10] 100% | residual activity [11] 100% | residual activity [12] 100% | residual activity [13] 100% | residual activity [14] 100% | residual activity [15] 94% | residual activity [16] 100% | residual activity [17] 96% | residual activity [18] 77% | residual activity [19] 100% | residual activity [20] 100% | residual activity [21] 100% | residual activity [22] 100% | residual activity [23] 100% | residual activity [24] 90% | residual activity [25] 100% | residual activity [26] 100% | residual activity [27] 92% | residual activity [28] 100% | residual activity [29] 78% | residual activity [30] 100% | residual activity [31] 100% | residual activity [32] 95% | residual activity [33] 100% | residual activity [34] 100% | residual activity [35] 100% | residual activity [36] 100% | residual activity [37] 100% | residual activity [38] 95% | residual activity [39] 100% | residual activity [40] 100% | residual activity [41] 97% | residual activity [42] 93% | residual activity [43] 100% | residual activity [44] 100% | residual activity [45] 100%
